Assays:
[1] = test system: etoposide-treated apoptotic cells (A549, H460, HeLa, L132, RAW); assay: Microscopic observation of binding of the peptide to apoptotic cells; assay type: cell-based; conditions: for labeling of etoposide-treated apoptotic cells: etoposide 50 μM; for labeling of etoposide-treated apoptotic cells / labeling of normal cells not treated with etoposide: fluorescence microscopy, fluorescein-labeled peptide 10 μM, alexa 594-labeled annexin V; for labeling of normal cells not treated with etoposide: 4° C., 1 hour
Protocol: Cells were cultured in a chamber slide (Nalgen Nunc), and treated with etoposide (Sigma) at a concentration of 50 μM for a given period of time to induce apoptosis (A549 and HeLa cells: for 15 hours, H460 cells: 24 hours, L132 cells: 3 hours, and RAW cells: 6 hours). The cells were cultured in RMPI-1640 medium (A549 and H460 cells) or DMEM medium (HeLa, L132 and RAW cells) containing antibiotics (penicillin and streptomycin) and 10% FBS. Meanwhile, all the cells were subcultured every 3 or 4 days. The apoptosis-induced apoptotic cells were washed with PBS, and blocked with 1% BSA at 37° C. for 30 minutes. Then, the cells were reacted with 10 μM of the peptide labeled with fluorescein, at 4° C. for 1 hour. After being washed, the cells were reacted with an annexin V reaction buffer solution containing alexa 594 (fluorescent reagent)-labeled annexin V (Molecular Probes) at room temperature for 15 minutes. The cells were washed with PBS, and then fixed with 4% paraformaldehyde for 5 minutes. Then, after counterstaining using the nuclear stain 4′,6-diamidino-2-phenylindole (DAPI), followed by treatment with a mounting solution (Molecular Probes), images of the cells were obtained under a fluorescence microscope (Zeiss).

apoptotic A549 cells = assay: Competitive inhibition of binding to apoptotic cells by annexin V pre-treatment; assay type: cell-based, human
Protocol: In order to further investigate the binding properties of the inventive peptide (ApoPep-1) to apoptotic cells, competitive inhibition by annexin V was measured. For this, first, apoptotic A549 cells were pretreated with annexin V, not labeled with fluorescence, at concentrations of 0, 200 and 1000 μM. Then, after the cells were reacted with fluorescence-labeled annexin V under the same condition as described in Example <2-1>, the binding of the cells was observed under a fluorescence microscope.
Meanwhile, apoptotic A549 cells were pre-treated with annexin V, not labeled with fluorescence, at a concentration of 1000 μM. Then, after the cells were reacted with fluorescence-labeled peptide under the same condition as described in Example <2-1>, the binding of the cells was observed under a fluorescence microscope.

A549 cells = assay: FACS analysis of binding to apoptotic cells; assay type: cell-based, human; conditions: for percentage of cells bound/stained, early stage of apoptosis (fraction Q4) / percentage of cells bound/stained, later stage of apoptosis (fraction Q2): A549 cells treated with 50 μM etoposide for 15 hours, PI co-staining
Protocol: As another way of confirming the binding of the inventive peptide to apoptotic cells, apoptotic cells were treated with the inventive peptide labeled with fluorescein, and the binding was confirmed through FACS analysis. First, apoptosis was induced by treating A549 cells with 50 μM etoposide for 6 to 15 hours. The apoptotic cells or normal cells were reacted with the inventive ApoPep-1 peptide(5 μM) or a control peptide at the same concentration, labeled with fluorescein, at 4° C. for 1 hour. Meanwhile, the cells were reacted with fluorescein-labeled annexin V at room temperature for 15 minutes. After simultaneously staining the cells with propodium iodide (PI), followed by washing with PBS, FACS analysis was performed using a FACS instrument (Becton Dickinson).

Molecule: CQRPPR (Apoptotic cell-targeting peptide, ApoPep-1)
- labeling of etoposide-treated apoptotic cells [1]: labeling was observed
- location of binding compared with annexin V (merged images) ([1]; etoposide-treated apoptotic cells): at the same locations
- labeling of normal cells not treated with etoposide [1]: no labeling was observed
- binding of the peptide after pre-treatment with annexin V (apoptotic A549 cells; annexin V not labeled with fluorescence, 1000 μM): not inhibited
- binding to normal cells (A549 cells; A549 cells not treated with etoposide, 5 μM, fluorescein-labeled): almost nonexistent
- percentage of cells bound/stained, early stage of apoptosis (fraction Q4) (A549 cells): 90.3%
- percentage of cells bound/stained, later stage of apoptosis (fraction Q2) (A549 cells): 7.2%

B1: annexin V: protein having a molecular weight of 36 kDa, binds to phosphatidylserine with strong affinity (protein, UniProt P08758 2-320, looked up)
Annexin A5: AQVLRGTVTDFPGFDERADAETLRKAMKGLGTDEESILTLLTSRSNAQRQEISAAFKTLFGRDLLDDLKSELTGKFEKLIVALMKPSRLYDAYELKHALKGAGTNEKVLTEIIASRTPEELRAIKQVYEEEYGSSLEDDVVGDTSGYYQRMLVVLLQANRDPDAGIDEAQVEQDAQALFQAGELKWGTDEEKFITIFGTRSVSHLRKVFDKYMTISGFQIEETIDRETSGNLEQLLLAVVKSIRSIPAYLAETLYYAMKGAGTDDHTLIRVMVSRSEIDLFNIRKEFRKNFATSLYSMIKGDTSGDYKKALLLLCGEDD
- labeling of etoposide-treated apoptotic cells [1]: labeling was observed
- labeling of normal cells not treated with etoposide [1]: no labeling was observed
- fluorescence of fluorescence-labeled annexin V after pre-treatment with annexin V not labeled with fluorescence (apoptotic A549 cells; pre-treatment 0, 200 and 1000 μM, high concentration): significantly decreased
- percentage of cells bound/stained, early stage of apoptosis (fraction Q4) (A549 cells): 64.3%
- percentage of cells bound/stained, later stage of apoptosis (fraction Q2) (A549 cells): 9.4%

From patent US20120258038A1, “USES OF APOPTOTIC CELL-TARGETING PEPTIDES, LABEL SUBSTANCES AND LIPOSOMES CONTAINING A THERAPEUTIC AGENT FOR PREVENTING, TREATING OR THERAPEUTICALLY DIAGNOSING APOPTOSIS-RELATED DISEASES” (Kyungpook National University Industry-Academic Cooperation …, priority 2009, published 2012)
